Reference: US20240182481A1 (Tango Therapeutics, Inc., priority 2021, published 2024)
Read-outs that look alike come from different tables or passages of the source.

Tests used:
[1] = test system: MDA-MB-436 (BRCA1 mutant) cell line; assay: Viability assay in BRCA1 mutant cell line MDA-MB-436; assay type: cell-based; details: BRCA1 mutant MDA-MB-436, read-out: MDA-MB-436 rel IC50
Source text: (§1) Table 1 also indicates IC50 values in a viability assay for a non-isogenic pair of BRCA1 mutant (column 5—MDA-MB-436) and BRCA1 WT (column 6—HCC1954) cell lines. These values indicate the effect of treatment with compound on cell survival.

monoubiquitinated PCNA = assay: AlphaLISA assay measuring monoubiquitinated PCNA in MDA-MB-436; assay type: cell-based; details: read-out: Alpha LISA IC50
Source text: Table 1 also indicates IC50 values for exemplary compounds in an AlphaLISA assay measuring monoubiquitinated PCNA in a BRCA1 mutant cell line (MDA-MB-436; column 7).

USP1-UAF1 = USP1-UAF1 (Homo sapiens, UniProt O94782); assay: Ubiquitin Rhodamine assay for USP1-UAF1 activity; assay type: biochemical
Method: Certain compounds of the disclosure were assessed for USP1-UAF1 activity in a Ubiquitin Rhodamine assay as described in Example 135.

[2] = test system: HCC1954 (BRCA1 WT) cell line; assay: Viability assay in BRCA1 WT cell line HCC1954; assay type: cell-based; details: read-out: HCC 1954 IC50 rel IC50
Source text: as §1

[3] = Homo sapiens, MDA-MB-436, viability

Chain of USP1-UAF1 (O94782 whole entry): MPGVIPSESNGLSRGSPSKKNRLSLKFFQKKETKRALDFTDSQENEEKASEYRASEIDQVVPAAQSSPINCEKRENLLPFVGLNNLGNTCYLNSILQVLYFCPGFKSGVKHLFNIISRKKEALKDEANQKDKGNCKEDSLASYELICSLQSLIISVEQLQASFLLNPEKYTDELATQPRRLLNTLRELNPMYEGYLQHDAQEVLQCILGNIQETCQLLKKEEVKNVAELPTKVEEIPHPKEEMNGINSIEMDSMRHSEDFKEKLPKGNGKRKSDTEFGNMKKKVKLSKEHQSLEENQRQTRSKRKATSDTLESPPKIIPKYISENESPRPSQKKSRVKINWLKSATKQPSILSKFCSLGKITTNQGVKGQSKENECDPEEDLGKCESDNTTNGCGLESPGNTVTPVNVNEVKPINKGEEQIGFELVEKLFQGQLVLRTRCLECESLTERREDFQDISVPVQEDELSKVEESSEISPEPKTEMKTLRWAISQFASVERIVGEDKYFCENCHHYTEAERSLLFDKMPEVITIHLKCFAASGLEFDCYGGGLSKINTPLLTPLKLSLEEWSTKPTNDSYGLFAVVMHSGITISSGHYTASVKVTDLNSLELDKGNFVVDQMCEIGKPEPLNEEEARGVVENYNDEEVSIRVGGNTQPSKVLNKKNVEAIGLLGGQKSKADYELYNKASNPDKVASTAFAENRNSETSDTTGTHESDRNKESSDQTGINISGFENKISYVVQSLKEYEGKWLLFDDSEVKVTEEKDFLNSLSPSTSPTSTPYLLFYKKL
Chain of USP1-UAF1 (Q8TAF3 whole entry partner): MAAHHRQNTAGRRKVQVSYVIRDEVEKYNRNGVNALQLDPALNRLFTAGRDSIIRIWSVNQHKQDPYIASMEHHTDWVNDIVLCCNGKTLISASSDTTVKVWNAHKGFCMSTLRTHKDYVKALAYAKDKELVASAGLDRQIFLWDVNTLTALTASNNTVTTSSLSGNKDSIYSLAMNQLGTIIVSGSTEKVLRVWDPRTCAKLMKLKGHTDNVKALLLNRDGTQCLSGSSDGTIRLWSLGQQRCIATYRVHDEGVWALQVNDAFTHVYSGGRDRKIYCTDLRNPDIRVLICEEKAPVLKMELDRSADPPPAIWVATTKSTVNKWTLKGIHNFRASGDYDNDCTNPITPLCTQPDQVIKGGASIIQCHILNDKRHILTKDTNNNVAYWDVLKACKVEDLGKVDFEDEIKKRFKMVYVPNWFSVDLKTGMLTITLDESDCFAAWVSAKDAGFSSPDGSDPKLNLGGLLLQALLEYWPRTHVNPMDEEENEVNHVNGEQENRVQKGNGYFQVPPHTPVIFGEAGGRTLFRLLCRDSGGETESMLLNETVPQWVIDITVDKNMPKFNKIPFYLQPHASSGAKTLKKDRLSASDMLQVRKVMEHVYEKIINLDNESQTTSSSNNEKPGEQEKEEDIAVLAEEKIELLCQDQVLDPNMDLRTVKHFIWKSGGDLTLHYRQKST

IC50 [1, 3] | IC50 (monoubiquitinated PCNA; Homo sapiens) | IC50 (USP1-UAF1) | IC50 ([2]; Homo sapiens) | IC50 ([1]; viability) | IC50 (monoubiquitinated PCNA) | IC50 [2] | SMILES
< 0.1 µM | < 0.1 µM | < 0.03 µM | 0.25 to 10 µM |  |  |  | C[C@@H](Oc1ncccc1-c1ncc2[nH]cc(Cc3ccc(-c4nc(C(F)(F)F)cn4C)cc3)c2n1)C(F)(F)F (single isomer, unassigned) [Compound 21]
< 0.1 µM | < 0.1 µM | < 0.03 µM | 0.25 to 10 µM |  |  |  | C[C@H](Oc1ncccc1-c1ncc2[nH]cc(Cc3ccc(-c4nc(C(F)(F)F)cn4C)cc3)c2n1)C(F)(F)F (single isomer, unassigned) [Compound 51]
< 0.1 µM | < 0.1 µM | < 0.03 µM | 0.25 to 10 µM |  |  |  | CC(C)c1ccccc1-c1ncc2[nH]cc([C@H](C)c3ccc(-c4nc(C(F)(F)F)cn4C)cc3)c2n1 (single isomer, unassigned) [Compound 64]
0.25 to 10 µM | 0.1 to 0.25 µM | < 0.03 µM | 0.25 to 10 µM |  |  |  | Cn1cc(C(F)(F)F)nc1-c1ccc([C@@](C)(O)c2c[nH]c3cnc(-c4cccnc4OCC(F)(F)F)nc23)cc1 (single isomer, unassigned) [Compound 74]
< 0.1 µM | < 0.1 µM | < 0.03 µM | 0.25 to 10 µM |  |  |  | CC(C)c1ccccc1-c1ncc2[nH]cc([C@@H](C)c3ccc(-c4nc(C(F)(F)F)cn4C)cc3)c2n1 (single isomer, unassigned) [Compound 82]
< 0.1 µM | < 0.1 µM | < 0.03 µM | 0.25 to 10 µM |  |  |  | COc1ncnc(C2CC2)c1-c1ncc2[nH]cc(C(C)c3ccc(-c4nc(C(F)(F)F)cn4C)cc3)c2n1 (single isomer, unassigned) [Compound 89]
< 0.1 µM | < 0.1 µM | 0.03 to 0.1 µM | ≥ 10 µM |  |  |  | COc1ncnc(C2CC2)c1-c1ncc2c(n1)c(Cc1ccc(-c3nc(C(F)(F)F)cn3C)cc1)nn2C(C)C (single isomer, unassigned) [Compound 98, 5-(4-cyclopropyl-6-methoxy-pyrimidin-5-yl)-1-isopropyl-3-[[4-[1-methyl-4-(trifluoromethyl)imidazol-2-yl]phenyl]methyl]pyrazolo[4,3-d]pyrimidine]
< 0.1 µM | < 0.1 µM | 0.03 to 0.1 µM | ≥ 10 µM |  |  |  | Cn1cc(C(F)(F)F)nc1-c1ccc(C(O)c2c[nH]c3cnc(-c4c(OC(F)F)ncnc4C4CC4)nc23)cc1 (single isomer, unassigned) [Compound 103]
0.1 to 0.25 µM | 0.1 to 0.25 µM | 0.1 to 10 µM | ≥ 10 µM |  |  |  | COc1ncnc(C2CC2)c1-c1ncc2nn(C(C)C)c(Cc3ccc(-c4nc(C(F)(F)F)cn4C)cc3)c2n1 (single isomer, unassigned) [Compound 104, 5-(4-cyclopropyl-6-methoxy-pyrimidin-5-yl)-2-isopropyl-3-[[4-[1-methyl-4-(trifluoromethyl)imidazol-2-yl]phenyl]methyl]pyrazolo[4,3-d]pyrimidine]
 |  | < 0.03 µM |  | < 0.1 µM | < 0.1 µM | ≥ 10 µM | Cn1cc(C(F)(F)F)nc1-c1ccc(C(O)c2c[nH]c3cnc(-c4c(OC(F)F)ncnc4C4CC4)nc23)cc1 (single isomer, unassigned) [Compound 141]
0.1 to 0.25 µM | < 0.1 µM | 0.03 to 0.1 µM | 0.25 to 10 µM |  |  |  | COc1ncnc(C2CC2)c1-c1ncc2[nH]cc([C@@H](c3ccc(-c4nc(C(F)(F)F)cn4C)cc3)C(C)C)c2n1 (single isomer, unassigned) [Compound 151]
< 0.1 µM | < 0.1 µM | 0.03 to 0.1 µM | ≥ 10 µM |  |  |  | CC(C)c1ccccc1-c1ncc2[nH]cc(C(O)c3ccc(-c4nc(C(F)(F)F)cn4C)cc3)c2n1 (stereo not drawn) [Compound 1, [2-(2-isopropylphenyl)-5H-pyrrolo[3,2-d]pyrimidin-7-yl]-[4-[1-methyl-4-(trifluoromethyl)imidazol-2-yl]phenyl]methanol]
0.1 to 0.25 µM | < 0.1 µM | 0.03 to 0.1 µM | ≥ 10 µM |  |  |  | CC(C)c1ccccc1-c1ncc2[nH]cc(Oc3ccc(-c4nc(C(F)(F)F)cn4C)cc3)c2n1 [Compound 2, 2-(2-isopropylphenyl)-7-[4-[1-methyl-4-(trifluoromethyl)imidazol-2-yl]phenoxy]-5H-pyrrolo[3,2-d]pyrimidine]
< 0.1 µM | < 0.1 µM | < 0.03 µM |  |  |  |  | COc1ncnc(C2CC2)c1-c1ncc2[nH]nc(Cc3ccc(-c4nc(C(F)(F)F)cn4C)cc3)c2n1 [Compound 5, 5-(4-cyclopropyl-6-methoxy-pyrimidin-5-yl)-3-[[4-[1-methyl-4-(trifluoromethyl)imidazol-2-yl]phenyl]methyl]-1H-pyrazolo[4,3-d]pyrimidine]
< 0.1 µM | < 0.1 µM | < 0.03 µM | ≥ 10 µM |  |  |  | CC(C)c1ccccc1-c1ncc2[nH]cc(Cc3ccc(-c4nc(C(F)(F)F)cn4C)cc3)c2n1 [Compound 10, 2-(2-isopropylphenyl)-7-[[4-[1-methyl-4-(trifluoromethyl)imidazol-2-yl]phenyl]methyl]-5H-pyrrolo[3,2-d]pyrimidine]
0.25 to 10 µM | 0.1 to 0.25 µM | 0.03 to 0.1 µM | ≥ 10 µM |  |  |  | COc1ncccc1-c1ncc2[nH]cc(Cc3ccc(-c4nc(C(F)(F)F)cn4C)cc3)c2n1 [Compound 11, 2-(2-methoxy-3-pyridyl)-7-[[4-[1-methyl-4-(trifluoromethyl)imidazol-2-yl]phenyl]methyl]-5H-pyrrolo[3,2-d]pyrimidine]
0.25 to 10 µM | 0.25 to 10 µM | 0.1 to 10 µM | 0.25 to 10 µM |  |  |  | Cn1cc(C(F)(F)F)nc1-c1ccc(Nc2c[nH]c3cnc(-c4ccccc4C4CC4)nc23)cc1 [Compound 12, 2-(2-cyclopropylphenyl)-N-[4-[1-methyl-4-(trifluoromethyl)imidazol-2-yl]phenyl]-5H-pyrrolo[3,2-d]pyrimidin-7-amine]
< 0.1 µM | < 0.1 µM | < 0.03 µM | ≥ 10 µM |  |  |  | CC(C)c1ccccc1-c1cc2c(Oc3ccc(-c4nc(C(F)(F)F)cn4C)cc3)c[nH]c2cn1 [Compound 14, 5-(2-isopropylphenyl)-3-[4-[1-methyl-4-(trifluoromethyl)imidazol-2-yl]phenoxy]-1H-pyrrolo[2,3-c]pyridine]
< 0.1 µM | 0.1 to 0.25 µM | < 0.03 µM | ≥ 10 µM |  |  |  | CCn1cc(C(F)(F)F)nc1-c1ccc(Cc2c[nH]c3cnc(-c4c(OC)ncnc4C4CC4)nc23)cc1 [Compound 15]
0.25 to 10 µM | < 0.1 µM | 0.1 to 10 µM | 0.25 to 10 µM |  |  |  | CC(C)c1ccccc1-c1cc2c(Nc3ccc(-c4nc(C(F)(F)F)cn4C)cc3)c[nH]c2cn1 [Compound 17]
0.1 to 0.25 µM | 0.1 to 0.25 µM | 0.1 to 10 µM | ≥ 10 µM |  |  |  | COc1ncnc(C2CC2)c1-c1ncc2[nH]cc(Cc3ccc(-c4nc(C(F)(F)F)cn4C4CN(C)C4)cc3)c2n1 [Compound 18, 2-(4-cyclopropyl-6-methoxypyrimidin-5-yl)-7-(4-(1-(1-methylazetidin-3-yl)-4-(trifluoromethyl)-1H-imidazol-2-yl)benzyl)-5H-pyrrolo[3,2-d]pyrimidine]
0.1 to 0.25 µM | < 0.1 µM | 0.1 to 10 µM | ≥ 10 µM |  |  |  | CN1CC(n2cc(C(F)(F)F)nc2-c2ccc(Cc3c[nH]c4cnc(-c5cccnc5OC(F)F)nc34)cc2)C1 [Compound 20, 2-[2-(difluoromethoxy)-3-pyridyl]-7-[[4-[1-(1-methylazetidin-3-yl)-4-(trifluoromethyl)imidazol-2-yl]phenyl]methyl]-5H-pyrrolo[3,2-d]pyrimidine]
0.25 to 10 µM | 0.1 to 0.25 µM |  | ≥ 10 µM |  |  |  | COc1ncnc(C2CC2)c1-c1ncc2nn(C)c(Cc3ccc(-c4nc(C(F)(F)F)cn4C)cc3)c2n1 [Compound 24, 5-(4-cyclopropyl-6-methoxy-pyrimidin-5-yl)-2-methyl-3-[[4-[1-methyl-4-(trifluoromethyl)imidazol-2-yl]phenyl]methyl]pyrazolo[4,3-d]pyrimidine]
< 0.1 µM | < 0.1 µM |  | ≥ 10 µM |  |  |  | COc1ncnc(C2CC2)c1-c1ncc2c(n1)c(Cc1ccc(-c3nc(C(F)(F)F)cn3C)cc1)nn2C [Compound 26, 5-(4-cyclopropyl-6-methoxy-pyrimidin-5-yl)-1-methyl-3-[[4-[1-methyl-4-(trifluoromethyl)imidazol-2-yl]phenyl]methyl]pyrazolo[4,3-d]pyrimidine]
< 0.1 µM | < 0.1 µM | < 0.03 µM |  |  |  |  | COc1ncnc(C2CC2)c1-c1ncc2[nH]cc(Cc3ccc(-c4nc(C(F)(F)F)cn4C(C)C)cc3)c2n1 [Compound 54, 2-(4-cyclopropyl-6-methoxy-pyrimidin-5-yl)-7-[[4-[1-isopropyl-4-(trifluoromethyl)imidazol-2-yl]phenyl]methyl]-5H-pyrrolo[3,2-d]pyrimidine]
< 0.1 µM | < 0.1 µM |  | 0.25 to 10 µM |  |  |  | Cn1cc(C(F)(F)F)nc1-c1ccc(Cc2c[nH]c3cnc(-c4c(C(F)(F)F)cnn4C)nc23)cc1 [Compound 179, 7-[[4-[1-methyl-4-(trifluoromethyl)imidazol-2-yl]phenyl]methyl]-2-[2-methyl-4-(trifluoromethyl)pyrazol-3-yl]-5H-pyrrolo[3,2-d]pyrimidine]
